Experimental data as given in patent US12054470B2, “Photoswitchable dibenzothienylmethyl triphenylphosphonium derivatives and methods of treating cancer therewith” (Saint Louis University, priority 2018, dated 2024).

Legend:
[1] = Water solubility; format: physicochemical
[2] = test system: MDA-MB-231 breast cancer cells; assay: MTS cell viability assay with and without UV-A exposure; format: cell-based; conditions: compound added pre-UV exposure (UV-A 30 min), 100 μM and 10 μM, MTS after 24 h, vs. VC, n=4
Protocol: After 24 hours incubation at 37° C., varying concentrations of 2-TPPMDBTO were added and incubated for 1 hour at 37° C. One plate with cells were then left at room temperature covered for 15 minutes (cells without UV). The second plate was exposed to UV-A in a Luzchem photoreactor with 8 LZC-UVA lamps for 15 minutes (Cells with UV). Plates were then incubated for 24 hours at 37° C. and then a MTS cell viability assay (Promega) was performed. Cell viability assay was run on a Flexstation3 mulitmode plate reader and percent viability was calculated. Statistical analyses were performed using GraphPad Prism program.
FIGS. 6A-C show cell studies wherein MDA-MB-231 breast cancer cells were plated at 10,000 cells/well on three 96 well plates. After 24 hours incubation at 37° C., varying concentrations of MA-1 and MA-2 were added and incubated for 1 hour at 37° C. on only two plates (pre-UV and no UV exposure). One plate with cells were then left at room temperature covered for 30 min (no UV). The second plate (pre-UV) and the third plate (post-UV) were exposed to UV-A in a Luzchem photoreactor with 8 LZC-UVA lamps for 30 min. Varying concentrations of MA-1, MA-2, MA-3 and MA-4 were added to post UV plate after irradiation. […] Cell viability assay was run on a Flexstation3 mulitmode plate reader and percent viability was calculated. […]

[3] = test system: cell cycle progression; assay: Cell cycle progression with, without or before UV-A irradiation; format: cell-based

water solubility [1] | Compound | % cell viability [2] | cell cycle progression / cell cycle arrest ([3]; compound administered in the absence of UV or after irradiation) | cell cycle progression / cell cycle arrest ([3]; compound administered in the absence of UV or after irradiation, listed as 1a) | cell cycle progression / cell cycle arrest ([3]; in the presence of UV-A irradiation) | cell cycle progression / cell cycle arrest ([3]; in the presence of UV-A irradiation, listed as 1a)
water soluble | [O-][s+]1c2ccccc2c2cc(C[P+](c3ccccc3)(c3ccccc3)c3ccccc3)ccc21 (stereo not drawn) [MA-1, (5-oxo-2-dibenzothienylmethyl)triphenylphosphonium] | – | – | – | – | –
– | (5-oxo-2-dibenzothienylmethyl)triphenylphosphonium [MA-1] | decrease in % cell viability is observed | the progression of the cell cycle is not arrested | no significant change in the progress was seen | cell cycle progression is arrested | presence of UV-A irradiation is necessary to lead to cell cycle arrest
